Consider 5 sequences from patent US7906620B2, “Tumor associated antigen, peptides thereof, and use of same as anti-tumor vaccines” (Yeda Research and Development Co. Ltd., priority 2002, dated 2011).

One assay deals with EL4/HHD cells. In words: Immunogenicity of PSGR-derived peptides in HHD mice (peptide-loaded dendritic cells). To be noted: mouse, in vivo. Here is the method:
FIGS. 15A and 15B are graphs showing immunogenicty of PSGR-derived peptides in HHD mice. The mice were immunized i.v. three time with 1×10^6 syngeneic dendritic cells (DCs) loaded with either PSGR-1 or PSGR-6 peptides. Spleens were removed on day 10 after the last immunization, and splenocytes were re-stimulated in vitro by 100 μM PSGR-1 (FIG. 15A) or PSGR-6 (FIG. 15B) derived peptides in OPTIMEM for 2 h at 37° C., 5% CO2, followed by restimulation of lymphocytes for 4 more days in RPMI-HEPES. CTL assays were performed on day 5 with individual PSGR-1 or PSGR-6 derived peptides loaded on EL4/HHD cells as targets. Non-relevant PAP derived peptide-loaded EL4/HHD cells were used as negative controls. 100:1, 50:1, 25:1, 12.5:1 effector-to-target ratios are shown.
The immunogenicity of the peptides, namely their potential to induce T cell responses, was subsequently examined in an in vivo model. A strain of β2 microglobulin (β2m) HLA-A2.1 Monochain Transgenic, H-2D^b−/−Xβ2m^−/− double knockout mice (HHD mice) was used. Upon vaccination of these mice, a repertoire of human HLA-A2.1 restricted CTLs is produced. The lysis patterns of each of the individual peptides loaded on target cells were first evaluated following immunization with syngeneic dendritic cells pulsed with pools of 2-4 synthetic peptides derived from each examined protein.

Assay [1] concerns peptide loaded on labeled RMA-S/HHD. The assay is described as follows: Immunogenicity of peptides in HHD mice: vaccination with peptide-loaded RMA-S/HHD/B7.1, cytolytic assay on peptide-loaded targets. To be noted: for Score: immunogenic score: ratio of specific lysis, specific peptide vs tyrosinase peptide loaded on RMA-S/HHD, average of two experiments, positive above 125%; for antigenic / immunogenic in HHD mice: mouse, in vivo. The class given is in vivo. Here is the method: FIG. 4 is a graph of the results of in vitro cytolytic assays. Seven peptides are immunogenic. Peptides were loaded on RMA-S/HHD/B7.1, washed and irradiated. HHD mice were immunized three times as described in the materials and methods section in Example 1. In vitro cytolytic assays were performed on the relevant peptide as target and on an irrelevant peptide. The score was deduced from the ratio of the specific lysis that were obtained. The positive peptides (above 125%) are marked by arrows. Peptides 1-6, 3-5 and 3-7 are derived from “Human 1-8D gene”.
(§1) Vaccination. HHD mice were immunized i.p. 3 times at 7-day intervals with 2×10^6 irradiated (5000 rad) tumor cells, or irradiated peptide-loaded RMA-S/HHD/B7.1 transfectants. Spleens were removed on day 10 after the last immunization, and splenocytes were restimulated in vitro, either with irradiated tumor cells or with one third of the lymphocytes pre-pulsed with 100 μM synthetic peptides in opti-MEM (Life Technologies) for 2 hr at 37° C., 5% CO2. Restimulated lymphocytes were cultured in RPMI-HEPES medium containing 10% FCS, 2 mM glutamine, combined antibiotics, 1 mM sodium pyruvate, 25 mM HEPES, 5×10^−5M PME and 1% NEAA for 5 days. Viable cells (effectors) were separated by Lympholyte-M (Cedarlane, Hornby, Canada) gradient, resuspended and admixed at different ratios with 5,000 ^35S-methionine-labeled target cells. Cytolytic assays were carried out as described previously in Carmon et al., 2000. Extracts of tumor peptides or normal colon peptides were prepared from a pool of 6 post-surgical colon carcinoma specimens as described before Carmon et al., 2000.
The antigenic peptides were tested for their specific immunogenicity in HHD mice. HHD mice were vaccinated with RMA-S/HHD/B7.1 cells loaded with each of the peptides (listed in Table 3), their spleens were removed, and resensitized in vitro with synthetic peptides for four days. On the fifth day, a cytolytic assay was performed on two targets, either the peptide itself loaded on labeled RMA-S/HHD or the tyrosinase peptide as a negative control. The ratio of specific lysis between specific and tyrosinase peptides was defined as “immunogenic score”. This experiment was repeated twice and the average score of each of the antigenic peptides is specified (Table 3 and FIG. 4). The horizontal line in FIG. 4 represents the limit of 95% significance as defined by assuming normal distribution of scores.

For assay [2], the system named is HCT/HHD cells. The assay is described as follows: Adoptive transfer of anti-1-8D peptide lymphocytes to nude mice bearing HCT/HHD footpad tumors. The assay is classed as in vivo, CD1-nude mice. To be noted: for day from which retardation in tumor growth is significant (P<0.05): 10^7 restimulated lymphocytes i.v. three days post challenge, IL-2, one tailed student t-test. On the procedure: FIG. 9 is a graph showing that nude mice were challenged in the foot pad with HCT/HHD cells. Lymphocyte from vaccinated HHD mice were transferred together with IL-2 to the tumor bearing mice and the growth of the tumor was monitored twice a week.
Adoptive transfer. CD1-nude mice were challenged in the footpad with 3×10^6 HCT/HHD cells. Three days later, 10^7 viable re-stimulated effector cells were injected i.v. to the tail vein. One thousand units of IL-2, was injected i.p. twice a day for 7 consecutive days post transfer. Tumor growth was monitored by measuring the diameter of the footpad with calipers. Mice were sacrificed when one of the tumor diameters reached 10 mm.
The anti-tumor efficacy of anti-1-8D peptide CTL was evaluated next. A transfer model, in which HCT/HHD cells were inoculated to the footpads of nude mice, was established. Three days post footpad challenge, in vitro restimulated HHD lymphocytes were transferred i.v. and the tumor growth was monitored.

The next assay has as its system peptide pulsed T2 cells. In words: In vitro priming of human CTL precursors with 1-8D peptides. To be noted: for activating peripheral CTLp to lyse target cells in a peptide specific manner: PBMC of two normal donors, after 4 consecutive stimulations. The class given is cell-based. On the procedure: FIG. 10 are graphs showing PMBC from 4 donors checked for existence of CTL precursors. Left hand panel-peptide 1-6 stimulated CTLp. Middle Panel-peptide 3-5 stimulated CTLp. Right hand panel-peptide 3-7 stimulated CTLp. […] PBMC were supplemented with IL-7, and two days later IL-2 was added and renewed every three days. The rest of the stimulations were done every 7 days over peptide pulsed monocytes. Seven days after the third stimulation, lymphocytes were harvested and a cytolytic assay was performed using peptide pulsed (closed squares, closed circles, open triangles, X signs) or non-pulsed T2 cells (open circles) as targets. Closed squares represent CTLp from donor A, closed circles represent CTLp from donor B, open triangles represent CTLp from donor C, Xs represent CTLp from donor D, and open circles represent non-pulsed T2 cells.
In vitro priming of human CTL. Leukopheresis products of four healthy donors were obtained from Barzilai Medical Center (Ashkelon, Israel) according to Declaration of Helsinki Principles. PMBC were isolated by centrifugation on Ficoll-Plaque Plus gradients (Amersham, Sweden). The procedure was carried out according to Thurner et al., with minor modifications. Briefly, in vitro priming was done over autologous DC that were prepared from monocytes by IL-4 and GM-CSF treatment and matured with a IL-1β, IL-6, TNF-α and PGE2 cocktail. DC were pulsed with the synthetic peptides and PBMC were supplemented with IL-7. Two days later IL-2 was added and renewed every three days. The rest of the stimulations were done every 7 days over peptide pulsed monocytes. […]

In assay [3] the test system is HCT/HHD cells. In words: Anti-HCT/HHD CTL response after vaccination of HHD mice with 1-8D peptides. The assay is classed as in vivo. To be noted: for lysis of HCT/HHD by peptide-induced CTL: HHD mice immunized with peptide loaded on RMA-S/HHD/B7.1; for ranking as vaccine against HCT/HHD (in vitro cytolytic capacity): mouse, in vivo. Here is the method: FIG. 6 is a graph showing that the 1-8D peptides can mount anti-HCT/HHD CTL responses. HHD mice were immunized with HCT/HHD/B7.1 and with peptide loaded on RMA-S/HHD/B7.1. In vitro cytolytic assays were performed using HCT/HHD cells as targets. The specific lysis at E:T in 50:1 ratio of a representative experiment out of three is shown.
as §1
(§2) Intrigued by this finding, the laboratory of the present inventors focused on the 1-8D peptides. Peptide binding to HLA-A2.1 was verified by a T2 stabilization assay (Firat et al., 1999). […] 1-8D peptides were next tested for induction of anti-HCT/HHD CTL responses by vaccinating HHD mice with the 1-8D peptides (Carmon et al., 2000).

Another assay has as its target T1, HLA-A2.1 (Homo sapiens, UniProt P04439, D140Y/D185E/D98H/E176V/E277Q/G131W/G231S/I119V/I121R/I166T/I218V/L300P/L318F/N151K/N90K/P208A/P217A/Q86G/Q94H/R138H/R169H/T345S).
T1 construct: endogenous in cells; host or cells: T2 cells (TAP-2-deficient lymphoblastoid line)
In words: T2 stabilization assay (peptide binding to HLA-A2.1). To be noted: acid stripped T2 cells, peptide and recombinant β2m, BB7.2 mAb, FACS. On the procedure:
T2 cells were acid stripped and incubated with the indicated peptide and recombinant β2m or with β2m alone as a negative control. FIG. 5D is the tyrosinase peptide as the positive control. Cells were stained with BB7.2 mAb and analyzed by FACS. The number of positive cells above control level is indicated for each of the peptides.
as §2

For assay [4], the system named is EL4/HHD/1-8D transfected cells. The assay is described as follows: Lysis of 1-8D transfectants by CTL from peptide-immunized HHD mice. The assay is classed as in vivo. To be noted: high background lysis of EL4/HHD. Here is the method:
FIGS. 8A-8C are graphs that show 1-8D peptides 1-6 (FIG. 8A), 3-5 (FIG. 8B), and 3-7 (FIG. 8C) mount CTL responses that lyse 1-8D transfectants. Each peptide was loaded on RMA-S/HHD/B7.1 and used to immunize HHD mice. In vitro cytolytic assays were performed using EL4/HHD cells (open circles) and EL4/HHD/1-8D transfected cells (dark circles) as a target. The specific lysis of a representative experiment out of three is shown.
The 1-8D peptides are presented by HHD molecules on HCT/HHD cells. […] The plasmid was stably transfected into EL4 cells together with an HHD plasmid. HHD mice were immunized with the 1-8D peptides and a cytolytic assay was performed. The susceptibility of EL4/HHD/1-8D transfectant and the parental EL4/HHD cells to be lysed by anti-1-8D lymphocytes were compared. FIG. 8A-8C summarizes the results of these cytolytic experiments.

The test system of assay [5] is peptide loaded on labeled RMA-S/HHD. Conditions: F. A. Lemonnier, unpublished; cited from earlier work.
[6] abbreviates: healthy donor PBMC, peptide pulsed vs non-pulsed T2 targets.

For the sequence “GLEKAHFWV (listed as Homo sapiens) [PSGR-6, PSGR start position 18]”, the “level of immunogenicity in HHD mice” value in the assay on EL4/HHD cells is “low”.
With “KCLNIWALI (listed as Homo sapiens) [Peptide 3-7, Human 1-8D and 1-8U genes from interferon inducible genes 103-111]”, in assay [1], the Score came out at 487.5; the “antigenic / immunogenic in HHD mice” value was “antigenic and immunogenic”. Further, the “day from which retardation in tumor growth is significant (P<0.05)” value (from here on “day … in tumor growth is significant (P<0.05)”) in the assay with HCT/HHD cells [2] is 13 days. Moreover, the “effect on in vivo growth of HCT/HHD” value in the assay on HCT/HHD cells [2] (adoptive transfer, nude mice) is given as “least effective”. Also, in the assay with peptide pulsed T2 cells, the “activating peripheral CTLp to lyse target cells in a peptide specific manner” value (“activating peripheral CTLp” below) is listed as “highly efficient”. Also, in the assay with peptide pulsed T2 cells (setting [6]), the “CTL activity of stimulated CTLp, donor A” value is listed as “high CTL activity”; the “CTL activity of stimulated CTLp, donor B” value was “high CTL activity”; the “CTL activity of stimulated CTLp, donor C” value was “low activity”; the “CTL activity of stimulated CTLp, donor D” value is recorded as “low activity”. In the assay on HCT/HHD cells [3], the “lysis of HCT/HHD by peptide-induced CTL” value is given as “lyse the human colon carcinoma line HCT-15-HHD” and the “ranking as vaccine against HCT/HHD (in vitro cytolytic capacity)” value (from here on “ranking as vaccine against HCT/HHD”) was “least effective”. Further, the “binding to HLA-A2.1 (stabilization of HLA-A2 on T2 cells)” value (shortened to “binding”) in the assay with HLA-A2.1 is recorded as “stabilize HLA-A2 on T2 cells”. For the same sequence, the “lysis of 1-8D transfectant compared to EL4/HHD cells” value (“lysis … compared to EL4/HHD cells” for short) in assay [4] is recorded as “better lysed”.
As for “LILGIFMTI (listed as Homo sapiens) [Peptide 3-5, Human 1-8D gene from interferon inducible gene 110-118]”, in assay [1], the Score was found to be 176.7; the “antigenic / immunogenic in HHD mice” value was “antigenic and immunogenic”. In the assay on HCT/HHD cells [2], the “day … in tumor growth is significant (P<0.05)” value turned out to be 11 days. Further, the “activating peripheral CTLp” value in the assay on peptide pulsed T2 cells is listed as “incompetent”. Also, in the assay with peptide pulsed T2 cells (setting [6]), the “CTL activity of stimulated CTLp, donor B” value was “low yet specific CTL activity”; the “CTL activity of stimulated CTLp, donor C” value is “not and low yet specific CTL activity”. Moreover, in the assay on HCT/HHD cells [3], the “lysis of HCT/HHD by peptide-induced CTL” value was “lyse the human colon carcinoma line HCT-15-HHD” and the “ranking as vaccine against HCT/HHD” value is reported as “most effective”. Also, the “binding” value with HLA-A2.1 is listed as “stabilize HLA-A2 on T2 cells”. For the same sequence, the “lysis … compared to EL4/HHD cells” value in assay [4] was “roughly equal”.
For the sequence “EMKEEQEV (listed as Homo sapiens) [Peptide 1-6, Human 1-8D gene from interferon inducible gene 20-28]”, in assay [1], the Score was 181.3; the “antigenic / immunogenic in HHD mice” value is “antigenic and immunogenic”. In addition, the “day … in tumor growth is significant (P<0.05)” value with HCT/HHD cells [2] turned out to be 13 days. Further, the “activating peripheral CTLp” value in the assay with peptide pulsed T2 cells is given as “incompetent”. Further, in the assay with peptide pulsed T2 cells (setting [6]), the “CTL activity of stimulated CTLp, donor A” value is recorded as “not”; the “CTL activity of stimulated CTLp, donor B” value is “low yet specific CTL activity”; the “CTL activity of stimulated CTLp, donor C” value is recorded as “not”. Moreover, in the assay on HCT/HHD cells [3], the “lysis of HCT/HHD by peptide-induced CTL” value is given as “lyse the human colon carcinoma line HCT-15-HHD” and the “ranking as vaccine against HCT/HHD” value is listed as “intermediate”. For the same sequence, in the assay with HLA-A2.1, the “binding” value was “stabilize HLA-A2 on T2 cells”. Moreover, the “lysis … compared to EL4/HHD cells” value in assay [4] is reported as “better lysed”.
For TLNAWVKVV [HIV derived peptide], in assay [5], the “immunogenicity in the HHD model” value is “weak immunogen”.
